According to patent US20080241289A1, “PREPARATION AND UTILITY OF NON-NUCLEOSIDE REVERSE TRANSCRIPTASE INHIBITORS” (AUSPEX PHARMACEUTICALS, INC., priority 2007, published 2008):

Test system: BN Rats
Experiment: Incidence of skin rash in BN rats, time course study
Type: in vivo
Procedure: The protocol was modeled after that published previously (Shenton et al, Chem. Res. Toxicol. 2005, 18, 1799-1813, and Popovic et al, Chem. Res. Toxicol. 2006, 19, 1205-1214). After a 1-week acclimation period, the rats (n=3 per group) were either treated with the suspension vehicle (1% Tween® 20), or Nevirapine (NVP) (150 mg/kg/day) in suspension, or compounds of Formula I (dNVP) (150 mg/kg) in suspension. Animals were monitored for development of skin rash, and body weight. At the endpoint of the experiment, rats were humanely euthanized using carbon dioxide and exsanguinations.
At day 18, all animals in all three groups were euthanized as the experiment was deemed to have reached its ethical endpoint where no additional dosing was considered appropriate.

Cc1ccnc2c1NC(=O)c1cccnc1N2C1CC1 [NVP, 11-Cyclopropyl-5,11-dihydro-4-methyl-6H-dipyrido[3,2,-b:2′,3′-e][1,4]-diazepin-2-one]
other visible signs (ears, eyes, feet, tail) (150 mg/kg/day in suspension, at approximately the two-week point): distinctly red ears, edematous eyes, purple feet, and a mottled tail | behaviour / general health after dosing (150 mg/kg/day in suspension, over entire course of the experiment (to day 18)): inactivity and a lack of responsiveness for about three hours after each dosing | overall toxicity, NVP compared with compounds of Formula I (150 mg/kg/day in suspension, under controlled conditions): substantially more toxic than compounds of Formula I | development of skin lesions (skin rash) (n=3 per group, 150 mg/kg/day in suspension (1% Tween 20), observed to day 18): all NVP-treated animals displayed lesions, particularly around the dorsal area of the neck
